Measured values from PubChem BioAssay (NCI).
“And” between values parts separate entries of the source, which are not always exact repeats. Identical values can stand only once.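 Interpolation was linear, between the two tested concentrations surrounding the appropriate level; five concentrations were tested over 48 hours in 96-well plates. Here, GI50 denotes the concentration required for 50% inhibition of growth. The concentration for full growth arrest is given as TGI.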

How the values were obtained:
Experiment in all cases: NCI-60 cell line screen, 48 h
ACHN renal = test system: ACHN renal
CAKI-1 renal = test system: CAKI-1 renal
CCRF-CEM leukemia = test system: CCRF-CEM leukemia
DU-145 prostate = test system: DU-145 prostate
M14 melanoma = test system: M14 melanoma
MDA-MB-231 breast = test system: MDA-MB-231 breast
RPMI-8226 leukemia = test system: RPMI-8226 leukemia
SR leukemia = test system: SR leukemia
K-562 leukemia = test system: K-562 leukemia
SK-MEL-28 melanoma = test system: SK-MEL-28 melanoma

SMILES	TGI (ACHN renal) [µM]	TGI (CAKI-1 renal) [µM]	TGI (CCRF-CEM leukemia) [µM]	TGI (DU-145 prostate) [µM]	TGI (M14 melanoma) [µM]	TGI (MDA-MB-231 breast) [µM]	TGI (RPMI-8226 leukemia) [µM]	TGI (SR leukemia) [µM]	GI50 (ACHN renal)	TGI (K-562 leukemia) [µM]	GI50 (M14 melanoma) [µM]	GI50 (MDA-MB-231 breast)	GI50 (RPMI-8226 leukemia)	TGI (SK-MEL-28 melanoma) [µM]	GI50 (CAKI-1 renal) [µM]	GI50 (DU-145 prostate) [µM]	GI50 (K-562 leukemia) [µM]	GI50 (SK-MEL-28 melanoma) [µM]	GI50 (SR leukemia) [µM]	GI50 (CCRF-CEM leukemia) [nM]
Cc1cc(O)cc2c1c(=O)c1ccccc1n2C	> 100	> 100	> 100	> 100	> 100	> 100	> 100	> 100	–	–	–	–	–	–	–	–	–	–	–	–
N#Cc1c2c(c(-c3cccs3)n(C3OC(CO)C(O)C(O)C3O)c1=S)CCc1ccccc1-2 (centres undefined)	> 100	> 100	> 100	> 100	> 100	> 100	> 100	> 100	13.8 µM and > 92.2 µM	> 100	> 100	15.5 µM and 37.3 µM	9.27 µM and > 23.7 µM	> 100	–	–	–	–	–	–
CCOC(=O)/C(C#N)=C/Nc1ccc(-c2nc3ccccc3[nH]2)cc1	78	74.1	–	> 100	> 100	45.1	> 100	> 100	25.4 µM	98.6	62.3	18.1 µM	19.7 µM	54.1	26.6	66.6	25.1	22.5	40.8	–
NS(=O)(=O)c1ccc(NC(=O)Nc2ccccc2F)cc1	> 100	> 100	–	> 100	> 100	> 100	> 100	> 100	–	> 100	–	–	–	> 100	–	–	–	–	–	–
Nc1c(C(=O)Nc2cccc(Br)c2)sc2nc3c(cc12)C(O)CCC3 (centres undefined)	31.1	> 100	> 74.9	22.4	> 100	> 85.7	23.5	> 46	0.848 µM	> 38.4	0.36	2.24 µM	0.404 µM	> 100	0.439	0.455	0.12	4.43	0.228	357
Cc1sc2ncn(Cc3ccc(Cl)c(Cl)c3)c(=O)c2c1C	> 100	32.9	> 100	> 100	64	77.9	> 100	> 100	12.4 µM	> 100	24.4	24.7 µM	12.2 µM	> 100	3.47	44.3	5.4	77.9	29.8	27700
COc1cccc(C2=C(c3cn(C)c4cccc(OC)c34)C(=O)NC2=O)c1	> 25	> 25	> 25	> 25	> 25	> 25	> 24.1	> 25	15.5 µM	> 25	7.98	17.9 µM	9.09 µM	> 25	9.79	10.7	3.51	> 19.1	2.08	10400
Oc1c(CN2CCOCC2)cc(COCc2ccccc2)c2cccnc12	> 100	> 100	> 100	> 100	7.84	> 100	> 100	17.9	0.571 µM	> 100	1.59	6.48 µM	4.06 µM	> 100	0.555	4.73	2.74	2.79	0.681	494
COc1cc(-c2nn(-c3ccc(NC(=O)c4cc(Cl)cc(Cl)c4)cc3)cc2-c2ccncc2)ccc1Cl	> 100	> 100	> 100	> 100	> 100	> 100	–	> 100	> 100 µM	> 100	7.39	9.93 µM	–	> 100	> 100	> 100	2.91	> 100	> 100	5770
O=S(=O)(O)ONC1=NCCN1	> 100	> 100	> 100	> 100	> 100	> 100	> 100	> 100	> 100 µM	> 100	> 100	> 100 µM	46.1 µM	> 100	> 100	> 100	> 100	> 100	> 100	43400
O=[As]c1ccc(C(=O)c2ccc(Oc3ccccc3)cc2)cc1 (centres undefined)	0.114	0.12	0.155	0.123	0.202	0.192	0.105	0.0736	0.0358 µM	0.117	0.0695	0.0547 µM	0.0267 µM	0.153	0.0392	0.0348	0.0188	0.0416	< 0.0168	19.1
COc1cc([C@@H]2c3cc4c(cc3C[C@H]3COC(=O)[C@@H]32)OCO4)cc2c1OCO2	> 100	–	97.7	> 100	> 100	< 0.0224	> 100	< 0.01	–	> 40	–	–	–	> 100	–	–	–	–	–	–
O=C(CC(=O)c1ccccc1)c1ccccc1	34.5	66	–	65.3	44.7	> 100	> 100	> 100	11.5 µM	> 100	14.1	> 100 µM	21.3 µM	> 100	20.1	11.9	8.31	31	11.7	–
O=c1c2c3c(sc2n2c(-c4ccc(Br)cc4)nnc2n1Cc1ccccc1)CCCC3	21.1	22.4	29.2	22.9	–	16.6	25.4	23.6	8.74 µM	> 100	–	3.39 µM	3.85 µM	19.9	6.02	9.72	23.8	6.19	4.76	2980
COc1cc([C@@H]2c3cc4c(cc3C(OC3O[C@@H]5COC(C)O[C@H]5[C@H](O)[C@H]3O)C3COC(=O)[C@@H]32)OCO4)cc(OC)c1O (some centres undefined)	> 25	> 28.1	–	5.78	7.83	> 40.4	7.83	–	1.27 µM	> 30.3	1.37	7.25 µM	0.666 µM	> 34.6	1.83	1.2	1.53	2.12	0.0276	–
COc1c(N2CCN(Cn3c(O)c(N=NC(=O)c4ccncc4)c4cc(F)ccc43)C(C)C2)c(F)cc2c(=O)c(C(=O)O)cn(C3CC3)c12 (centres undefined)	> 50	> 50	–	32.8	> 50	27.7	47.2	> 50	12.5 µM	> 50	32.9	8.31 µM	15.1 µM	> 50	> 50	10	> 50	> 50	16.3	–
COc1ccc(NC(=O)/C=C(C)/C=C/C=C(C)\C=C\C2=C(C)CCCC2(C)C)cc1	> 100	–	> 100	> 100	> 100	59	64.4	80.8	> 100 µM	> 100	> 100	5.21 µM	1.71 µM	> 100	–	> 100	30.3	> 100	28.8	48000
CCCCOc1ccc(/C=N/Nc2cc(C)nc3ccc(Cl)cc23)cc1	3.1	3.07	4.48	3.71	3.91	3.25	4.53	3.13	1.73 µM	–	1.89	1.74 µM	1.92 µM	3.08	1.68	1.82	–	1.66	0.501	1860
CO[C@H](C(=O)O)[C@@H]1Cc2cc3cc(OC4CC(OC5CC(O)C(O)C(C)O5)C(O)C(C)O4)c(C)c(O)c3c(O)c2C(=O)[C@H]1OC1CC(OC2CC(OC3CC(C)(O)C(O)C(C)O3)C(O)C(C)O2)C(O)C(C)O1 (some centres undefined)	–	> 32.5	> 32.5	> 32.5	3.59	> 32.5	2.23	8.37	–	> 32.5	0.443	0.553 µM	0.16 µM	1.99	0.598	0.364	0.303	0.191	0.133	330
C1CC[N-]CC1.CC(=N\O)/C(C)=N/O.CC(=N\O)/C(C)=N/O.[CH2-]CCN1CCOCC1.[Co+2]	> 100	> 100	–	> 100	> 100	> 100	> 100	> 100	> 100 µM	> 100	> 100	> 100 µM	> 100 µM	> 100	> 100	> 100	> 100	> 100	6.1	–
